Patent publication US11806317B2, “Composition capable of promoting testosterone secretion and use thereof” (TCI CO., LTD, priority 2017, dated 2023)

System: mouse Leydig cells (TM3 cells, ATCC CRL1714)
Experiment: Test of effects of plant extracts or combinations of components on testosterone secretion (testosterone ELISA of culture supernatant)
Type: cell-based
Details: 24 hours, control 100%
Procedure: 500 μl of the cell culture medium was added to each well of a 24-well plate to have 2×10^4 TM3 cells per well, and cultured at 37° C. for 24 hours. After the cells were adhered, the original medium was removed, and 500 μl of the aforementioned fresh cell culture medium was added.
The samples were then divided into two groups, of which group A was the control group, and no plant extracts or other test components were added. Group B was the test group. […] After that, the condition of the amount of testosterone secretion was analyzed. The doses shown in the tables are the doses of the single extract, or the combination of the extracts.
First, 50 μl of the supernatant of the culture medium after the reaction of each of the above groups was taken out, and the testosterone ELISA test kit (USCN, Cat# CEA458Ge) was used to detect the testosterone concentration. The detected values were then analyzed by Microsoft Excel software using Student's t-test to determine whether there is statistical significance between the two samples (* indicates p-value <0.05; ** indicates p-value <0.01; *** indicates p-value <0.001).

[1] = dose 0.125 mg/ml (single extract/component or 1:1 combination)
[2] = dose 0.25 mg/ml (single extract/component or 1:1 combination)

Row | SMILES | Testosterone secretion relative to control (dose 0.03125 mg/ml (single extract/component or 1:1 combination)) [%] | Testosterone secretion relative to control [1] [%] | Testosterone secretion relative to control [2] [%]
1 | CC1=C(/C=C/C(C)=C/C=C/C(C)=C/C=C/C=C(C)/C=C/C=C(C)/C=C/C2=C(C)CCCC2(C)C)C(C)(C)CCC1 [beta carotene] | 66.21 | 103.79 | 111.42
2 | CC(C)=CCC/C(C)=C/C=C/C(C)=C/C=C/C(C)=C/C=C/C=C(C)/C=C/C=C(C)/C=C/C=C(\C)CCC=C(C)C [lycopene] | – | 99.94 | 104.02
